Patent EP0556947A1, “Use of M1-selective antimuscarinic pyridobenzodiazepinones for the treatment and prevention of axial myopia” (MERCK & CO. INC., priority 1992, dated 1993)
Where two headings read alike, the source gives them in different places.

Columns and labels:
[1] = test system: axial enlargement of the eye; conditions: ocular administration under image deprivation; cited from earlier work
Form-deprivation myopia = assay: form-deprivation myopia model in chicks (eyelid suture); type: in vivo, White Leghorn chicks; conditions: expected from M₁ potency relative to pirenzepine; no data reported
Experimental: Form-deprivation myopia is induced in day-old White Leghorn chicks under aseptic conditions and other anesthesia by eyelid suture to one eye. The chicks are maintained on a 12-hour light:dark cycle. […] Drug is injected daily subconjunctivally during the light cycle. At two weeks of age the animals are sacrificed and axial and equatorial dimensions of unfixed eyes are measured with vernier calipers independently by two observers.

M₁ receptors = molecular target: T1, M₁ receptors (Rattus norvegicus, UniProt P08482); assay: ³H-pirenzepine radioligand binding assay, rat cerebral cortex; conditions: for selectivity for M₁ than for M₃ receptors: M₁ (rat cerebral cortex) versus M₃ (rabbit iris + ciliary body) binding; for Ki: read-out: M1 Ki
T1 construct: M₁ receptors in rat cerebral cortex were labeled with ³H-pirenzepine; from tissue; host or cells: rat cerebral cortex
T1 sequence (P08482 1-460): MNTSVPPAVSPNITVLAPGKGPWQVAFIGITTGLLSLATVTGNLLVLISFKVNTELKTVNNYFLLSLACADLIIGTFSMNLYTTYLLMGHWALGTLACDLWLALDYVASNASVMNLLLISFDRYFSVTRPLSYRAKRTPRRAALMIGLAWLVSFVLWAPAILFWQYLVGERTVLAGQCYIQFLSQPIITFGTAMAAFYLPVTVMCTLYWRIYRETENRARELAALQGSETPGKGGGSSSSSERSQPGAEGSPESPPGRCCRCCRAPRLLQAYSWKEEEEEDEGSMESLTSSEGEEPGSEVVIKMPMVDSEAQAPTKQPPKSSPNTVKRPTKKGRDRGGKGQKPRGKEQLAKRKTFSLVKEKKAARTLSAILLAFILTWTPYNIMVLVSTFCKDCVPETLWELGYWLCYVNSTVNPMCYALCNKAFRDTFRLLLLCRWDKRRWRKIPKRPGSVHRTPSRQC

M₃ receptors = molecular target: T2, M₃ receptors (Oryctolagus cuniculus, UniProt G1U308); assay: ³H-QNB radioligand binding assay, rabbit iris + ciliary body (minus ciliary processes)
T2 construct: M₃ receptors in rabbit iris + ciliary body; from tissue; host or cells: rabbit iris + ciliary body (minus ciliary processes)
T2 sequence (G1U308 1-599): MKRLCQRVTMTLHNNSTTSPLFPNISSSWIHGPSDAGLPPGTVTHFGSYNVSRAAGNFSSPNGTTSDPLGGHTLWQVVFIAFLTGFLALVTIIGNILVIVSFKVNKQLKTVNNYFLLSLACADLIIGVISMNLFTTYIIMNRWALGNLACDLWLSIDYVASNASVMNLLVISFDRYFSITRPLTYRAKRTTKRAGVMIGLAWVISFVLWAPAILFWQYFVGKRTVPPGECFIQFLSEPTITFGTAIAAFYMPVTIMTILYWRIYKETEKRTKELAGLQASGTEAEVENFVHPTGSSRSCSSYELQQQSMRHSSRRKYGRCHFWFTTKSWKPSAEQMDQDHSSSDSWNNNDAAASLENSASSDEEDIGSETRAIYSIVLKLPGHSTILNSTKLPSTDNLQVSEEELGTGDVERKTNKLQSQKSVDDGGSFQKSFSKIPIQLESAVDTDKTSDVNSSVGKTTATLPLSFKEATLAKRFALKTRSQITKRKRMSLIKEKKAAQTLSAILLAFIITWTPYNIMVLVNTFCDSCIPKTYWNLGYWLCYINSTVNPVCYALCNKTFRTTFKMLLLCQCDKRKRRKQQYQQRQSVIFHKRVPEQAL

[2] = test system: female Dunkin Hartley albino guinea pigs; assay: guinea pig maximization test (sensitization); type: in vivo; conditions: challenge phase, readings on days 24 and 25
Experimental: The guinea pig maximization test is required by the U.S. Food and Drug Administration of all drugs intended for ophthalmic administration. […] In Phase I, which is the induction phase, on day 1 two intradermal injections at the highest generally tolerated concentration of the test material were administered in the shaved intercapsular area (O.1ml of the test agent in a 50:50 mixture of Freund's complete adjuvant and distilled water). On day 7, approximately 400mg of a mixture of 10% sodium laurel sulfate in petrolatum was applied to the shaved intercapsular area. On day 8, 400mg of a mixture of the test compound in petrolatum was applied, on a 2 x 4 cm piece of Whatman paper to the shaved intercapsular area, along with Blenderm tape.
In Phase II, which is the challenge phase, on day 22, 200mg of petrolatum was applied to the shaved right flank, while 200mg of test compound at the highest non-irritant concentration (micronized in petrolatum) was applied to the shaved left flank, with each application being occluded for 24 hours.

M₂ receptors = molecular target: T3, M₂ receptors (Rattus norvegicus, UniProt P10980); assay: ³H-AFDX-384 radioligand binding assay, rat heart; conditions: ³H AFDX-384 binding; for Ki: mean of 3-7 determinations ± SEM, read-out: M2 Ki
T3 construct: ³H-AFDX-384 labeled M₂ receptors in rat heart; from tissue; host or cells: rat heart
T3 sequence (P10980 1-466): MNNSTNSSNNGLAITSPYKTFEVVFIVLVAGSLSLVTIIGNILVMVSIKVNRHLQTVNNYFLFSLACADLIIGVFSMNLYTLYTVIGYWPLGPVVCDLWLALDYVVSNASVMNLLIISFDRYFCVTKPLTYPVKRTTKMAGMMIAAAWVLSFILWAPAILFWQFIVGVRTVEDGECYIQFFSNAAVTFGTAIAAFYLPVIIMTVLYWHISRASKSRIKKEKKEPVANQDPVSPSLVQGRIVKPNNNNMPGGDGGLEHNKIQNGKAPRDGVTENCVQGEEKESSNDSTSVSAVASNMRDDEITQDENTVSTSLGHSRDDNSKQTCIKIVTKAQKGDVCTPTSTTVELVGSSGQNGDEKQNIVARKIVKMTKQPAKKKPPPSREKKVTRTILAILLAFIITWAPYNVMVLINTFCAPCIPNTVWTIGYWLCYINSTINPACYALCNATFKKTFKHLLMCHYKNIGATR

myopia = conditions: 1.0% atropine applied topically at bedtime, treated eye, one year per eye; cited from earlier work
[3] = ³H Pirenzepine binding, rat cerebral cortex
[4] = ³H-QNB binding, rabbit iris + ciliary body (minus ciliary processes)
[5] = ³H-QNB binding, rabbit iris + ciliary body (minus ciliary processes), mean of 3-7 determinations ± SEM, read-out: M3 Ki

Compound | effectiveness in myopia therapy (Form-deprivation myopia) | selectivity for M₁ than for M₃ receptors (M₁ receptors) [fold] | Ki (M₁ receptors) [µM] | M1 nH (Hill Coefficient) (M₁ receptors; [3]) | M3 nH (Hill Coefficient) (M₃ receptors; [4]) | Ki (M₃ receptors; [5]) [µM] | grade of skin reaction ([2]; in any test animal) | M2 nH (Hill Coefficient) (M₂ receptors) | Ki (M₂ receptors) [µM] | other results
CN1CCc2cccc3c2[C@H]1Cc1ccc(O)c(O)c1-3 [apOmorphine] | – | – | – | – | – | – | – | – | – | axial enlargement of the eye [1]: inhibit or actually prevent
CN1CCC(C(=O)N2c3ccccc3C(=O)Nc3cccnc32)CC1 [Nuvenzepine, 11-(1-Methylpiperidin-4-carbonyl)-5,11-dihydro-6H -pyrido[2,3-b][1,4]benzodiazepin-6-one] | at least as effective as pirenzepine | 20 | 0.0015 | 0.9 | 0.80 | 0.0297 | 0 | 1.03 | 0.248 | –
CN1[C@@H]2CC[C@H]1C[C@@H](OC(=O)C(CO)c1ccccc1)C2 (some centres unmarked) [Atropine, reference compound] | – | – | – | – | 1.1 | – | – | 1.05 | – | M1 nH (Hill Coefficient) (M₁ receptors): 1.5; progression of the myopia (myopia): halted; Ki (M₃ receptors): 0.00037 µM
CN1CCCC(C(=O)N2c3ccccc3C(=O)Nc3cccnc32)C1 (centres unmarked) [Rispenzepine, 11-(1-Methylpiperidin-3-carbonyl)-5,11-dihydro-6H -pyrido[2,3-b][1,4]benzodiazepin-6-one] | at least as effective as pirenzepine | 15 | 0.00261 | 0.9 | 0.84 | 0.0389 | 0 | 1.00 | 0.226 | –
CN1CCN(CC(=O)N2c3ccccc3C(=O)Nc3cccnc32)CC1 [Pirenzepine, reference compound] | – | – | – | – | – | – | – | – | – | grade of skin reaction ([2]; in six of nine animals): 1; grade of skin reaction ([2]; in two of nine animals): 2
